Patent US20250115598A1 (Anaxis Pharma Pty Ltd, priority 2021, published 2025)

Key:
human RIPK3 = human RIPK3 (Homo sapiens (Human), UniProt Q9Y572); assay: KINOMEscan binding assay, human RIPK3; details: Table 21
Method: (§1) Binding affinity of the test compounds for human MLKL (full length), mouse MLKL (full length), human RIPK1 and human RIPK3 was determined using the KINOMEscan™ technology developed by DiscoverX (USA; http://www.discoverx.com). The assay was conducted according to manufacturer instructions.
(§2) Kinase assays. For most assays, kinase-tagged T7 phage strains were grown in parallel in 24-well blocks in an E. coli host derived from the BL21 strain. E. coli were grown to log-phase and infected with T7 phage from a frozen stock (multiplicity of infection=0.4) and incubated with shaking at 32° C. until lysis (90-150 minutes). The lysates were centrifuged (6,000×g) and filtered (0.2 μm) to remove cell debris. The remaining kinases were produced in HEK-293 cells and subsequently tagged with DNA for qPCR detection. […] The liganded beads were blocked with excess biotin and washed with blocking buffer (SeaBlock (Pierce), 1% BSA, 0.05% Tween 20, 1 mM DTT) to remove unbound ligand and to reduce non-specific phage binding. […] All reactions were performed in polypropylene 384-well plates in a final volume of 20 μL. […] The kinase concentration in the eluates was measured by qPCR.
(§3) An 11-point 3-fold serial dilution of each test compound was prepared in 100% DMSO at 100× final test concentration and subsequently diluted to 1× in the assay (final DMSO concentration=1%). Most Kos were determined using a compound top concentration=30,000 nM.
(§4) KD for each test compound was calculated with a standard dose-response curve using the Hill equation (equation (1)): […]
(§5) The Hill Slope was set to −1.
(§6) Curves were fitted using a non-linear least square fit with the Levenberg-Marquardt algorithm.

human RIPK1 = human RIPK1 (Homo sapiens (Human), UniProt Q13546); assay: KINOMEscan binding assay, human RIPK1; details: Table 21
human RIPK1, sequence (Q13546 whole entry): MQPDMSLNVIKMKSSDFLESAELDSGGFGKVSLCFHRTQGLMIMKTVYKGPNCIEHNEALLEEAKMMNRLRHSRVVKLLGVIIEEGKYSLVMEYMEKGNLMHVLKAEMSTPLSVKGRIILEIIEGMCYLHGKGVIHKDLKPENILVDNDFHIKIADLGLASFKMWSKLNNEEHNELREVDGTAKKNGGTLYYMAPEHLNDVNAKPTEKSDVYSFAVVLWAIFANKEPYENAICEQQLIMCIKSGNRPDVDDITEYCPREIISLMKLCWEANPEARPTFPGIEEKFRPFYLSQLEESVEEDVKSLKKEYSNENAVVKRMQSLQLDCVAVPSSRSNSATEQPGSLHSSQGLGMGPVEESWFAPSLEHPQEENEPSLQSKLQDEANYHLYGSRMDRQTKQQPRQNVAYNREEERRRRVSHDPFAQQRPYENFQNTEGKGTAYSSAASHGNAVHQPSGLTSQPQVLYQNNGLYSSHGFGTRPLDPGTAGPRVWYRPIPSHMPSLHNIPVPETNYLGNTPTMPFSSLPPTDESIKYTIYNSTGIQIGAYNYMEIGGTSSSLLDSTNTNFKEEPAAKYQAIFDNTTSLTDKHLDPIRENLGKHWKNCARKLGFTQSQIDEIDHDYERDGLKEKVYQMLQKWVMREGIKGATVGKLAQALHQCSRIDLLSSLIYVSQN
Method: as §1, §2, §3, §4, §5, §6

human RIPK3, sequence (Q9Y572 whole entry): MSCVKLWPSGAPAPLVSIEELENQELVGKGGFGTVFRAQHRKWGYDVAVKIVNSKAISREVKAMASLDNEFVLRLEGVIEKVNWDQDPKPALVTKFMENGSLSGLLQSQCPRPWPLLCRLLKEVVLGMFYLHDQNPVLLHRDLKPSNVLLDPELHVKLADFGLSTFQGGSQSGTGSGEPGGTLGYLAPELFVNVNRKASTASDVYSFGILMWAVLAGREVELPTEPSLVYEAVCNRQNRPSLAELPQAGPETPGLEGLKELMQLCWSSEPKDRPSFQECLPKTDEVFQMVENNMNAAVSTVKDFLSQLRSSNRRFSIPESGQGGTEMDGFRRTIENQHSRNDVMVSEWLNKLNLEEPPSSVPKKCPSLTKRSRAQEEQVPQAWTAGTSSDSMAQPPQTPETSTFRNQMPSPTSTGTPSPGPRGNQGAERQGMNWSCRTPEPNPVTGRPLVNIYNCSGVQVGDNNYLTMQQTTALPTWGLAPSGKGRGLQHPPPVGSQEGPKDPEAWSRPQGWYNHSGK

Nc1ncc(-c2cnn(C3CCOCC3)c2)c2occ(-c3ccc(NS(=O)(=O)CC(F)(F)F)c(OCc4ccc(F)cc4)c3)c12 [Compound 11, N-(4-(4-amino-7-(1-(tetrahydro-2H-pyran-4-yl)-1H-pyrazol-4-yl)furo[3,2-c]pyridin-3-yl)-2-((4-fluorobenzyl)oxy)phenyl)-2,2,2-trifluoroethane-1-sulfonamide]
Kd (human RIPK3): > 10 µM | Kd (human RIPK1): > 10 µM

C[C@H](Oc1cc(-c2cnn3ccnc(N)c23)ccc1NS(=O)(=O)C(F)F)c1ccc(F)cc1 [Compound 22, (S)—N-(4-(4-aminopyrazolo[1,5-a]pyrazin-3-yl)-2-(1-(4-fluorophenyl)ethoxy)phenyl)-1,1-difluoromethanesulfonamide]
Kd (human RIPK3): > 10 µM | Kd (human RIPK1): > 10 µM

C[C@H](Oc1cc(-c2nn(C)c3c(-c4ccnc(C(F)(F)F)c4)cnc(N)c23)ccc1NS(=O)(=O)C(F)F)c1ccc(F)cc1 [Compound 23, (S)-N-(4-(4-amino-1-methyl-7-(2-(trifluoromethyl)pyridin-4-yl)-1H-pyrazolo[4,3-c]pyridin-3-yl)-2-(1-(4-fluorophenyl)ethoxy)phenyl)-1,1-difluoromethanesulfonamide]
Kd (human RIPK3): > 10 µM | Kd (human RIPK1): > 10 µM

COc1cc(-c2cnc(N)c3c(-c4ccc(NS(=O)(=O)C(F)F)c(O[C@@H](C)c5ccc(F)cc5)c4)nn(C)c23)ccn1 [Compound 27, (S)-N-(4-(4-amino-7-(2-methoxypyridin-4-yl)-1-methyl-1H-pyrazolo[4,3-c]pyridin-3-yl)-2-(1-(4-fluorophenyl)ethoxy)phenyl)-1,1-difluoromethanesulfonamide]
Kd (human RIPK3): > 10 µM | Kd (human RIPK1): > 10 µM

C[C@H](Oc1cc(-c2nn(C)c3c(-c4cnn(C5CCCC5)c4)cnc(N)c23)ccc1NS(=O)(=O)C(F)F)c1ccc(F)cc1 [Compound 30, (S)-N-(4-(4-amino-7-(1-cyclopentyl-1H-pyrazol-4-yl)-1-methyl-1H-pyrazolo[4,3-c]pyridin-3-yl)-2-(1-(4-fluorophenyl)ethoxy)phenyl)-1,1-difluoromethanesulfonamide]
Kd (human RIPK3): 0.1 to 10 µM | Kd (human RIPK1): > 10 µM

Cc1noc(C)c1-c1cnc(N)c2c(-c3ccc(NS(=O)(=O)C(F)F)c(O[C@@H](C)c4ccc(F)cc4)c3)nn(C)c12 [Compound 33, (S)-N-(4-(4-amino-7-(3,5-dimethylisoxazol-4-yl)-1-methyl-1H-pyrazolo[4,3-c]pyridin-3-yl)-2-(1-(4-fluorophenyl)ethoxy)phenyl)-1,1-difluoromethanesulfonamide]
Kd (human RIPK3): > 10 µM | Kd (human RIPK1): > 10 µM

C[C@H](Oc1cc(-c2nn(C)c3c(Cc4ccccc4)cnc(N)c23)ccc1NS(=O)(=O)C(F)F)c1ccc(F)cc1 [Compound 34, (S)-N-(4-(4-amino-7-benzyl-1-methyl-1H-pyrazolo[4,3-c]pyridin-3-yl)-2-(1-(4-fluorophenyl)ethoxy)phenyl)-1,1-difluoromethanesulfonamide]
Kd (human RIPK3): > 10 µM | Kd (human RIPK1): > 10 µM

C[C@H](Oc1cc(-c2nn(C)c3c(C4CCN(C)CC4)cnc(N)c23)ccc1NS(=O)(=O)C(F)F)c1ccc(F)cc1 [Compound 42, (S)—N-(4-(4-amino-1-methyl-7-(1-methylpiperidin-4-yl)-1H-pyrazolo[4,3-c]pyridin-3-yl)-2-(1-(4-fluorophenyl)ethoxy)phenyl)-1,1-difluoromethanesulfonamide]
Kd (human RIPK3): > 10 µM | Kd (human RIPK1): > 10 µM

C[C@H](Oc1cc(-c2nn(C)c3c(C4=CCOCC4)cnc(N)c23)ccc1NS(=O)(=O)C(F)F)c1ccc(F)cc1 [Compound 43, (S)-N-(4-(4-amino-7-(3,6-dihydro-2H-pyran-4-yl)-1-methyl-1H-pyrazolo[4,3-c]pyridin-3-yl)-2-(1-(4-fluorophenyl)ethoxy)phenyl)-1,1-difluoromethanesulfonamide]
Kd (human RIPK3): > 10 µM | Kd (human RIPK1): > 10 µM

C[C@H](Oc1cc(-c2nn(C)c3c(-c4cnn(C5CCOCC5)c4)cnc(N)c23)ccc1NS(=O)(=O)CC(F)(F)F)c1ccc(F)cc1 [Compound 44, (S)—N-(4-(4-amino-1-methyl-7-(1-(tetrahydro-2H-pyran-4-yl)-1H-pyrazol-4-yl)-1H-pyrazolo[4,3-c]pyridin-3-yl)-2-(1-(4-fluorophenyl)ethoxy)phenyl)-2,2,2-trifluoroethane-1-sulfonamide]
Kd (human RIPK3): > 10 µM | Kd (human RIPK1): > 10 µM

CCS(=O)(=O)Nc1ccc(-c2nn(C)c3c(-c4cnn(C5CCOCC5)c4)cnc(N)c23)cc1O[C@@H](C)c1ccc(F)cc1 [Compound 45, (S)-N-(4-(4-amino-1-methyl-7-(1-(tetrahydro-2H-pyran-4-yl)-1H-pyrazol-4-yl)-1H-pyrazolo[4,3-c]pyridin-3-yl)-2-(1-(4-fluorophenyl)ethoxy)phe-nyl)ethanesulfonamide]
Kd (human RIPK3): 0.1 to 10 µM | Kd (human RIPK1): > 10 µM

C[C@H](Oc1cc(-c2nn(C)c3c(-c4ccnc(N(C)C)c4)cnc(N)c23)ccc1NS(=O)(=O)C(F)F)c1ccc(F)cc1 [Compound 49, (S)-N-(4-(4-amino-7-(2-(dimethylamino)pyridin-4-yl)-1-methyl-1H-pyrazolo[4,3-c]pyridin-3-yl)-2-(1-(4-fluorophenyl)ethoxy)phenyl)-1,1-difluoromethanesulfonamide]
Kd (human RIPK3): > 10 µM | Kd (human RIPK1): > 10 µM

CC(C)n1nc(-c2ccc(NS(=O)(=O)C(F)F)c(O[C@@H](C)c3ccc(F)cc3)c2)c2c(N)ncc(-c3cnn(C4CCOCC4)c3)c21 [Compound 51, (S)-N-(4-(4-amino-1-isopropyl-7-(1-(tetrahydro-2H-pyran-4-yl)-1H-pyrazol-4-yl)-1H-pyrazolo[4,3-c]pyridin-3-yl)-2-(1-(4-fluorophenyl)ethoxy)phenyl)-1,1-difluoromethane-sulfonamide]
Kd (human RIPK3): > 10 µM | Kd (human RIPK1): > 10 µM

CC(C)n1nc(-c2ccc(NS(=O)(=O)C(F)F)c(O[C@@H](C)c3ccc(F)cc3)c2)c2c(N)ncc(-c3cnn(C)c3)c21 [Compound 52, (S)-N-(4-(4-amino-1-isopropyl-7-(1-methyl-1H-pyrazol-4-yl)-1H-pyrazolo[4,3-c]pyridin-3-yl)-2-(1-(4-fluorophenyl)ethoxy)phenyl)-1,1-difluoromethane-sulfonamide]
Kd (human RIPK3): > 10 µM | Kd (human RIPK1): > 10 µM

C[C@H](Oc1cc(-c2nn(C)c3c(-c4ccnc(C(F)F)c4)cnc(N)c23)ccc1NS(=O)(=O)C(F)F)c1ccc(F)cc1 [Compound 57, (S)-N-(4-(4-amino-7-(2-(difluoromethyl)pyridin-4-yl)-1-methyl-1H-pyrazolo[4,3-c]pyridin-3-yl)-2-(1-(4-fluorophenyl)ethoxy)phenyl)-1,1-difluoromethanesulfonamide]
Kd (human RIPK3): 0.1 to 10 µM | Kd (human RIPK1): > 10 µM

C[C@H](Oc1cc(-c2nn(C)c3c(-c4cnn(C5CCN(CC(F)(F)F)CC5)c4)cnc(N)c23)ccc1NS(=O)(=O)C(F)F)c1ccc(F)cc1 [Compound 61, (S)-N-(4-(4-amino-1-methyl-7-(1-(1-(2,2,2-trifluoroethyl)piperidin-4-yl)-1H-pyrazol-4-yl)-1H-pyrazolo[4,3-c]pyridin-3-yl)-2-(1-(4-fluorophenyl)ethoxy)phenyl)-1,1-difluoromethanesulfonamide]
Kd (human RIPK3): > 10 µM | Kd (human RIPK1): > 10 µM

CCS(=O)(=O)Nc1ccc(-c2ncn3ccnc(N)c23)cc1OCc1ccc(F)cc1 [Compound 63, N-(4-(8-Aminoimidazo[1,5-a]pyrazin-1-yl)-2-((4-fluorophenyl)methoxy)phenyl) ethane-1-sulfonamide]
Kd (human RIPK3): > 10 µM | Kd (human RIPK1): > 10 µM

CCS(=O)(=O)Nc1ccc(-c2cnn3ccnc(N)c23)cc1OCc1ccc(F)cc1 [Compound 64, N-(4-(4-Aminopyrazolo[1,5-a]pyrazin-3-yl)-2-((4-fluorophenyl)methoxy)phenyl)ethane-1-sulfonamide]
Kd (human RIPK3): > 10 µM | Kd (human RIPK1): > 10 µM

Nc1n[nH]c2ccnc(-c3ccc(NS(=O)(=O)CC(F)(F)F)c(OCc4ccc(F)cc4)c3)c12 [Compound 65, N-(4-(3-amino-1H-pyrazolo[4,3-c]pyridin-4-yl)-2-((4-fluorophenyl)methoxy)phenyl)-2,2,2-trifluoroethane-1-sulfonamide]
Kd (human RIPK3): > 10 µM | Kd (human RIPK1): > 10 µM

Nc1n[nH]c2ccnc(-c3ccc(NS(=O)(=O)C(F)F)c(OCc4ccc(F)cc4)c3)c12 [Compound 68, N-(4-(3-amino-1H-pyrazolo[4,3-c]pyridin-4-yl)-2-((4-fluorophenyl)methoxy)phenyl)-1,1-difluoromethanesulfonamide]
Kd (human RIPK3): > 10 µM | Kd (human RIPK1): > 10 µM

C[C@H](Oc1cc(-c2nn(C)c3c(-c4cnn(C5CCCNCC5)c4)cnc(N)c23)ccc1NS(=O)(=O)C(F)F)c1ccc(F)cc1 (stereo partly drawn) [Compound 74, N-(4-(4-amino-7-(1-(azepan-4-yl)-1H-pyrazol-4-yl)-1-methyl-1H-pyrazolo[4,3-c]pyridin-3-yl)-2-((S)-1-(4-fluorophenyl)ethoxy)phenyl)-1,1-difluoromethane-sulfonamide]
Kd (human RIPK3): > 10 µM | Kd (human RIPK1): > 10 µM

C[C@H](Oc1cc(-c2nn(C)c3c(-c4cc(C#N)n(C)c4)cnc(N)c23)ccc1NS(=O)(=O)C(F)F)c1ccc(F)cc1 [Compound 83, (S)-N-(4-(4-amino-7-(5-cyano-1-methyl-1H-pyrrol-3-yl)-1-methyl-1H-pyrazolo[4,3-c]pyridin-3-yl)-2-(1-(4-fluorophenyl)ethoxy)phenyl)-1,1-difluoromethanesulfonamide]
Kd (human RIPK3): > 10 µM | Kd (human RIPK1): > 10 µM
